According to paper PMC4191062, “Development of αGlcN(1↔1)αMan-Based Lipid A Mimetics as a Novel Class of Potent Toll-like Receptor 4 Agonists” (Journal of Medicinal Chemistry, 2014):
Entries after “also recorded” stand apart in the source; their conditions may differ. Like-named read-outs stand apart in the source and are kept apart here.

Legend:
[1] = target: hTLR4/hMD-2/CD14-transfected HEK293 cells (Homo sapiens, UniProt O00206+Q9Y6Y9); assay: hTLR4/MD-2/CD14-transfected HEK293 (HEK-Blue) activation assay, NF-κB-dependent SEAP reporter; type: cell-based; conditions: for concentration at which TLR4 saturation plateau was reached: NF-κB/SEAP dose response
Chain of hTLR4/hMD-2/CD14-transfected HEK293 cells (O00206 24-839): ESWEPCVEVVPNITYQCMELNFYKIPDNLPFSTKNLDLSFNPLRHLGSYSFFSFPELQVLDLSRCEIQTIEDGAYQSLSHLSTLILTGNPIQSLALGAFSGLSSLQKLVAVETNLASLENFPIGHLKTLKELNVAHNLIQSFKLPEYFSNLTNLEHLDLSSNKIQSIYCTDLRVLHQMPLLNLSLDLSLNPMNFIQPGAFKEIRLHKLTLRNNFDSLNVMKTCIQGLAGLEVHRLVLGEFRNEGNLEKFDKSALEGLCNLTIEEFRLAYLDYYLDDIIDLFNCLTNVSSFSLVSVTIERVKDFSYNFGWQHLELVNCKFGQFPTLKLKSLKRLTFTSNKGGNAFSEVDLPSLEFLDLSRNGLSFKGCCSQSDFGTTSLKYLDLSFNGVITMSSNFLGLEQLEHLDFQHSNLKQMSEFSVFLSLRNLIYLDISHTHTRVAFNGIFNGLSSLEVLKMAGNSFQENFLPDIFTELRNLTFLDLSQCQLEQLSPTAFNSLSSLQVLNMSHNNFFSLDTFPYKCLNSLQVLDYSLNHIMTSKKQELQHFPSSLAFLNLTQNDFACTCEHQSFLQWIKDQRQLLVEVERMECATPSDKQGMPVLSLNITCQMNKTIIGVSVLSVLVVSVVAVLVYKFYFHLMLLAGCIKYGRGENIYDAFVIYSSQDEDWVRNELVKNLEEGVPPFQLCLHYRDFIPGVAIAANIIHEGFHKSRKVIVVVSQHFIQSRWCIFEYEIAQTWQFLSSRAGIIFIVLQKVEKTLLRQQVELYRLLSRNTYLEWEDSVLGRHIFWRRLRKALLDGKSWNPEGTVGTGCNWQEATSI
Chain of hTLR4/hMD-2/CD14-transfected HEK293 cells (Q9Y6Y9 17-160 limits assumed): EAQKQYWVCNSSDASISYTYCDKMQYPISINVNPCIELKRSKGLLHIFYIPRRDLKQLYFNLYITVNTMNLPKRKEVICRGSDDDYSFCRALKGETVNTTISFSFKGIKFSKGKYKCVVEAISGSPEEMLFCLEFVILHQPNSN
From the text: The propensity of the α,α-GM-LAMs 1–3 to stimulate TLR4-mediated immune signaling was first assessed in the hTLR4/hMD-2/CD14 transfected human embryonic kidney (HEK) 293 cells (HEK-Blue). Since we were particularly interested in the molecular recognition mechanisms implicated in the binding of LPS by the MD-2·TLR4 complex wherein the Lipid A/Re-LPS portion of LPS is exclusively involved, we evaluated the activities of α,α-GM-LAMs 1–3 compared to E. coliRe-LPS (Figure 1A). It has been previously shown that the minimum structural requirement for the expression of the highest cytokine-inducing potency resides in Re-LPS, which entails two 3-deoxy-D-manno-oct-2-ulosonic acid (Kdo) residues in addition to Lipid A (Supporting Information, SI-Figure 1A).[54],[55] Moreover, the Re-LPS has a defined molecular weight (MW) similar to the MW range for Lipid A mimetics (1.8–2.2 kDa), in contrast to wild-type LPS having variable MW (10–15 kDa), so that the direct comparison of a dose-dependent response between compounds 1–3 and Re-LPS is more appropriate. The TLR4-stimulating activity of Lipid A mimetics 1–3 was examined over a wide concentration range by monitoring of the activation of the NF-κB regulated signal transduction pathway via measuring the induction of secreted embryonic alkaline phosphatase (SEAP) and compared to the responses elicited by E. coliRe-LPS and SM-MPLA.
Growth conditions and activation assay were set as recommended by InvivoGen. The cells were stimulated with the solutions of compounds 1–3 or LPS/Re-LPS in DMEM supplemented by 10% FCS at the indicated concentrations. […] The compounds were added in a total volume of 20 μL to 25000 HEK-Blue hTLR4 cells in 180 μL plates and were incubated for 20–24 h at 37 °C and 5% CO2. SEAP levels were determined by incubation of 20 μL of challenged cell supernatants with 180 μL of detection reagent (QUANTI-Blue), and the color development was measured at 650 nm using a spectrophotometer (SpectraMAX 190). Data were combined from n = 3 independent experiments; error bars indicate standard error of the mean.
Supplementary SI-Figure 1
E. coli Re-LPS E. coli O111:B4
SI-Figure 1. (A) Dose-dependent activation of TLR4 signaling in hTLR4/hMD-2/hCD14 transfected HEK293 cells (HEK-Blue) by E. coli Re-LPS compared to E. coli O111:B4 LPS. [nM] concentrations were calculated from [ng/ml] concentrations based on the following molecular weights (MW): MWE. coli Re-LPS 2339 Da, MWE. coli O111:B4 LPS 10000 Da. (B) Dose-dependent activation of TLR4 signaling in hTLR4/hMD-2/hCD14 transfected HEK293 cells (HEK-Blue) by Lipid A mimetics 1- 3 compared to E. coli Re-LPS and S. minnesota MPLA. Non-linear curve fit (variable slope) was calculated using GraphPad Prism and is shown for the mean curves. Dotted lines indicate corresponding Ec50 values. Statistical analysis was performed on non-linear curve fits on individual datasets using an un-paired two-tailed t-test (*** indicates a p value < 0.001, ns indicates non-significant change). Top, bottom, hill slope and Ec50 values of non-linear curve fit on individual datasets are shown. […]

human dendritic cells = assay: Maturation marker expression in human dendritic cells (flow cytometry); type: cell-based; conditions: hDCs, 24 h; LPS 10 ng/ml
From the text: To test the impact of selected α,α-GM-LAMs 1 and 3 on maturation of human dendritic cells (hDCs), immature monocyte-derived hDCs were stimulated with 1 and 3 in a wide concentration range or with E. coli LPS as positive control. DCs are able to persistently sense pathogen-associated molecular patterns and present antigens to T lymphocytes, thereby initiating an adaptive immune response.[7]
None of the α,α-GM-LAMs exerted cytotoxic effects on DCs, as determined by propidium iodide staining (data not shown). […]
stimulatory molecules CD86 as well as the antigen presenting structures MHC class I and MHC class II, which are necessary for the induction of an adaptive immune response (SI-Figure 5). […]
up-regulation of the inhibitory B7-H1 (CD272) and Sialoadhesin (CD169), which is known to be indirectly up-regulated in DCs due to release of type-I interferons. […]
stimulator not only of the NF-κB- but also of the IRF-pathway. Stimulation of DCs with the monophosphoryl α,α- […]
SI-Figure 5. Bisphosphoryl α,α-GM-LAM 1 and monophosphoryl α,α-GM-LAM 3 induce the expression of maturation markers in human DCs. […] The cells were then harvested and the surface expression level of the indicated markers was measured by flow cytometry. […]

[2] = Storage stability in aqueous solution (MALDI-TOF analysis); type: physicochemical; conditions: 4 °C, several months, free acids at the phosphates
Procedure: Next, the free 6-OH group in the hexaacylated disaccharides 57 and 58 was phosphorylated by reaction with dibenzyl-(N,N′-diisopropylamino)phosphoramidite in the presence of a mild acid catalyst, 1H-tetrazole, and subsequent oxidation with mCPBA at −78 °C to furnish the bisphosphorylated hexaacylated products 61 and 62 in 91% and 89% yield, respectively. Final debenzylation by hydrogenation of 57, 61, and 62 on Pd-black followed by purification with gel permeation chromatography on Sephadex SX1 in toluene–methanol (2:1) afforded target bisphosphorylated Lipid A mimetics 1 and 2 and a monophosphorylated counterpart 3.

[3] = SEAP induction, 20–24 h, mean curve, nM calculated from ng/ml via MW, read-out: EC50 NF-κB activation
[4] = SEAP induction, mean curve, read-out: Ec50 (ng/ml) (converted)
[5] = dataset n1, read-out: Ec50 (ng/ml), non-linear curve fit on individual dataset (converted)
[6] = dataset n2, read-out: Ec50 (ng/ml), non-linear curve fit on individual dataset (converted)
[7] = dataset n3, read-out: Ec50 (ng/ml), non-linear curve fit on individual dataset (converted)

Row | EC50 [1, 3] [nM] | EC50 [1, 4] [nM] | Bottom of non-linear curve fit ([1]; dataset n1) | HillSlope of non-linear curve fit ([1]; dataset n1) | Top of non-linear curve fit ([1]; dataset n1) | EC50 [1, 5] [nM] | Bottom of non-linear curve fit ([1]; dataset n2) | HillSlope of non-linear curve fit ([1]; dataset n2) | Top of non-linear curve fit ([1]; dataset n2) | EC50 [1, 6] [nM] | Bottom of non-linear curve fit ([1]; dataset n3) | HillSlope of non-linear curve fit ([1]; dataset n3) | Top of non-linear curve fit ([1]; dataset n3) | EC50 [1, 7] [nM] | fold increase of TLR-4 stimulating activity on shortening lipid side chain at Man C-4 by 2×CH2 ([1]; 2 compared with 1) [fold] | SMILES | concentration at which TLR4 saturation plateau was reached [1] [ng/mL] | DCs maturation and up-regulation of CD86, MHC class I and MHC class II compared to LPS (human dendritic cells) | stability on storage in aqueous solution [2] | activation profile compared to SM-MPLA ([1]; at concentrations above 10 ng/mL)
1 | 0.08 | 0.0804 | 0.216 | 1.193 | 1.330 | 0.0884 | 0.232 | 1.250 | 1.319 | 0.0827 | 0.236 | 1.246 | 1.320 | 0.0758 | 5 | CCCCCCCCCCCCCC(=O)O[C@H](CCCCCCCCCCC)CC(=O)O[C@@H]1[C@@H](NC(=O)C[C@@H](CCCCCCCCCCC)OC(=O)CCCCCCCCCCC)[C@@H](O[C@H]2O[C@H](COP(=O)(O)O)[C@@H](OC(=O)C[C@@H](CCCCCCCCCCC)OC(=O)CCCCCCCCC)[C@H](O)[C@@H]2OC)O[C@H](CO)[C@H]1OP(=O)(O)O [Compound 2, 4-O-[(R)-3-(Decanoyloxy)tetradecanoyl]-2-O-methyl-6-O-phosphoryl-α-mannopyranosyl-(1↔1)-2-deoxy-2-[(R)-3-(dodecanoyloxy)tetradecanoylamino]-4-O-phosphoryl-3-O-[(R)-3-(tetradecanoyloxy)tetradecanoyl]-α-D-glucopyranoside] | 1 | – | without any noticeable sign of degradation | –
2 | 31 | 30.8 | 0.217 | 1.120 | 1.425 | 30.5 | 0.221 | 1.170 | 1.426 | 28.2 | 0.216 | 1.145 | 1.453 | 34.1 | – | CCCCCCCCCCCCCC(=O)O[C@H](CCCCCCCCCCC)CC(=O)O[C@@H]1[C@@H](NC(=O)C[C@@H](CCCCCCCCCCC)OC(=O)CCCCCCCCCCC)[C@@H](O[C@H]2O[C@H](CO)[C@@H](OC(=O)C[C@@H](CCCCCCCCCCC)OC(=O)CCCCCCCCCCC)[C@H](O)[C@@H]2OC)O[C@H](CO)[C@H]1OP(=O)(O)O [Compound 3, 4-O-[(R)-3-(Dodecanoyloxy)tetradecanoyl]-2-O-methyl-α-D-mannopyranosyl-(1↔1)-2-deoxy-2-[(R)-3-(dodecanoyloxy)tetradecanoylamino]-4-O-phosphoryl-3-O-[(R)-3-(tetradecanoyloxy)tetradecanoyl]-α-D-glucopyranoside] | – | less pronounced activation marker profile | – | more potent activation profile than SM-MPLA

Row | SMILES | EC50 [1, 3] [nM] | EC50 [1, 4] [nM] | Bottom of non-linear curve fit ([1]; dataset n1) | HillSlope of non-linear curve fit ([1]; dataset n1) | Top of non-linear curve fit ([1]; dataset n1) | EC50 [1, 5] [nM] | Bottom of non-linear curve fit ([1]; dataset n2) | HillSlope of non-linear curve fit ([1]; dataset n2) | Top of non-linear curve fit ([1]; dataset n2) | EC50 [1, 6] [nM] | Bottom of non-linear curve fit ([1]; dataset n3) | HillSlope of non-linear curve fit ([1]; dataset n3) | Top of non-linear curve fit ([1]; dataset n3) | EC50 [1, 7] [nM] | fold increase of TLR-4 stimulating activity on shortening lipid side chain at Man C-4 by 2×CH2 ([1]; 2 compared with 1) [fold] | concentration at which TLR4 saturation plateau was reached [1] [ng/mL] | DCs maturation and up-regulation of CD86, MHC class I and MHC class II compared to LPS (human dendritic cells) | stability on storage in aqueous solution [2] | activation profile compared to SM-MPLA ([1]; at concentrations above 10 ng/mL)
3 | CCCCCCCCCCCCCC(=O)O[C@H](CCCCCCCCCCC)CC(=O)O[C@@H]1[C@@H](NC(=O)C[C@@H](CCCCCCCCCCC)OC(=O)CCCCCCCCCCC)[C@@H](O[C@H]2O[C@H](COP(=O)(O)O)[C@@H](OC(=O)C[C@@H](CCCCCCCCCCC)OC(=O)CCCCCCCCCCC)[C@H](O)[C@@H]2OC)O[C@H](CO)[C@H]1OP(=O)(O)O [Compound 1, 4-O-[(R)-3-(Dodecanoyloxy)tetradecanoyl]-2-O-methyl-6-O-phosphoryl-α-D-mannopyranosyl-(1↔1)-2-deoxy-2-[(R)-3-(dodecanoyloxy)tetradecanoylamino]-4-O-phosphoryl-3-O-[(R)-3-(tetradecanoyloxy)tetradecanoyl]-α-D-glucopyranoside] | 0.4 | 0.424 | 0.212 | 1.282 | 1.369 | 0.505 | 0.225 | 1.341 | 1.312 | 0.352 | 0.215 | 1.257 | 1.348 | 0.421 | – | 5 | as potent as by LPS; also recorded: as potent as that with LPS | without any noticeable sign of degradation | –
